Like-named read-outs stand apart in the source and are kept apart here.
Columns and labels:
Enterococcus faecalis = assay: microbe, parasite or virus in culture; format: cell-based; conditions: Enterococcus faecalis (2 isolates)
Enterococcus faecium = assay: microbe, parasite or virus in culture; format: cell-based; conditions: Enterococcus faecium (3 isolates)
[1] = test system: Acinetobacter baumannii-calcoaceticus complex; assay: microbe, parasite or virus in culture; format: cell-based; conditions: Acinetobacter spp. (5 isolates)
Escherichia coli = assay: microbe, parasite or virus in culture; format: cell-based; conditions: Escherichia coli (5 isolates)
[2] = test system: E. cloacae species complex; assay: microbe, parasite or virus in culture; format: cell-based, Enterobacter cloacae; conditions: Enterobacter spp. (5 isolates)
Pseudomonas aeruginosa = assay: microbe, parasite or virus in culture; format: cell-based; conditions: Pseudomonas aeruginosa (5 isolates)
Streptococcus pneumoniae = assay: microbe, parasite or virus in culture; format: cell-based; conditions: Streptococcus pneumoniae (5 isolates)
Staphylococcus aureus = assay: microbe, parasite or virus in culture; format: cell-based; conditions: relative to P194-acetate; Staphylococcus aureus (5 isolates)
Klebsiella pneumoniae = Klebsiella pneumoniae (5 isolates)

Row | Sequence | MIC50 fold change (Enterococcus faecalis; relative to P194-acetate) | MIC50 fold change (Enterococcus faecium; relative to P194-acetate) | MIC50 fold change ([1]; relative to P194-acetate) | MIC50 fold change (Escherichia coli; relative to P194-acetate) | MIC50 fold change ([2]; relative to P194-acetate) | MIC50 fold change (Pseudomonas aeruginosa; relative to P194-acetate) | MIC50 fold change (Streptococcus pneumoniae; relative to P194-acetate) | MIC50 fold change (Staphylococcus aureus) | MIC50 fold change (Klebsiella pneumoniae; relative to P194-acetate) | MIC50 fold change (Enterococcus faecalis; relative to D8-acetate) | MIC50 fold change (Enterococcus faecium; relative to D8-acetate) | MIC50 fold change ([1]; relative to D8-acetate) | MIC50 fold change (Escherichia coli; relative to D8-acetate) | MIC50 fold change ([2]; relative to D8-acetate) | MIC50 fold change (Pseudomonas aeruginosa; relative to D8-acetate) | MIC50 fold change (Klebsiella pneumoniae; relative to D8-acetate) | MIC50 fold change (Streptococcus pneumoniae; relative to D8-acetate)
1 | RAVRCRCI [Peptide P194-T2A] | 4 | 2 | 0.5 | 0.5 | 0.5 | >2 | 2 | 2 | 2 |  |  |  |  |  |  |  | 
2 | RAVRCTCI [Peptide D8-T2A] |  |  |  |  |  |  |  |  |  | 2 | 2 | 2 | 2 | 1 | >2 | 2 | 
3 | RTARCTCI [Peptide D8-V3A] |  |  |  |  |  |  |  |  |  | >4 | 8 | 32 | 16 | >4 | >2 | >8 | 
4 | RTVACTCI [Peptide D8-R4A] |  |  |  |  |  |  |  |  |  | >4 | 8 | >32 | >16 | >4 | >2 | >8 | 
5 | RTVRATCI [Peptide D8-C5A] |  |  |  |  |  |  |  |  |  | >4 | >16 | >32 | >16 | >4 | >2 | >8 | 
6 | RTVRCACI [Peptide D8-T6A] |  |  |  |  |  |  |  |  |  | 1 | 1 | 2 | 1 | 0.5 | 2 | 2 | 1
7 | RTVRCTAI [Peptide D8-C7A] |  |  |  |  |  |  |  |  |  | >4 | 16 | >32 | >16 | >4 | >2 | >8 | 
8 | RTVRCTCA [Peptide D8-I8A] |  |  |  |  |  |  |  |  |  | 4 | 4 | 2 | 4 | 1 | 2 | 4 | 

— patent publication US20260078158A1, “COMPOSITIONS COMPRISING CXCL10-DERIVED PEPTIDES AND METHODS OF USE THEREOF” (priority 2022, published 2026)
